Laboratory results reported in the Deep4Chem optical property database.
Blank lines part the entries; values can stand above or below the molecule they belong to.

Assay: solvent given as SMILES

absorption maximum (in ClC(Cl)Cl): 426 nm
Structure (SMILES): F[B-]1(F)OC(c2cccc(Br)c2)=Cc2ccc3ccccc3[n+]21

absorption maximum (in C1COCCO1): 481 nm
absorption maximum (in CC#N): 488 nm
absorption maximum (in ClCCl): 494 nm
Structure (SMILES): CCCCN(CCCC)c1ccc(/C=C/c2ccc3nc(/C=C/c4ccc(N(C)C)cc4)c(=O)n(CCC)c3c2)cc1

absorption maximum (in CO): 402 nm
Structure (SMILES): COc1ccc(-c2cc(B(c3c(C)cc(C)cc3C)c3c(C)cc(C)cc3C)c(-c3sc(-c4ccc(OC)cc4)cc3P(=O)(c3ccccc3)c3ccccc3)s2)cc1

absorption maximum (in C1CCOC1): 571 nm
Structure (SMILES): F[B-]1(F)n2c(-c3ccccc3)cc(-c3ccccc3)c2C=C2C(c3ccccc3)=CC(c3ccccc3)=[N+]21

absorption maximum (in ClCCl): 395 nm
Structure (SMILES): COc1ccc(C2=Cc3cc4ccccc4cc3P2(=O)c2ccccc2)cc1 (centres undefined)

absorption maximum (in CS(C)=O): 360 nm
Structure (SMILES): COc1cc2sc3nc(-c4ccccc4)sc3c2cc1OC

absorption maximum (in ClC(Cl)Cl): 365 nm
Structure (SMILES): COc1ccc2c3ccc(OC)cc3c3cc4c(C)cc(=O)oc4cc3c2c1

absorption maximum (in O): 780 nm
Structure (SMILES): CC1(C)C(/C=C/C=C/C=C/C=C2\N(CCCCS(=O)(=O)[O-])c3ccc4ccccc4c3C2(C)C)=[N+](CCCCS(=O)(=O)[O-])c2ccc3ccccc3c21

absorption maximum (in C1CCCCC1): 305 nm
Structure (SMILES): COc1ccc(C2=C(c3ccc(OC)cc3)C(C)(C)c3cc(-c4ccccc4)ccc32)cc1

absorption maximum (in ClC(Cl)Cl): 427 nm
Structure (SMILES): CC(C)n1c(=O)c2cc3ccc4cccc5ccc(c2c1=O)c3c45

absorption maximum (in CC#N): 366 nm
Structure (SMILES): COc1ccc2cc(/C=C/c3ccccc3)c(=O)oc2c1

absorption maximum (in CS(C)=O): 398 nm
Structure (SMILES): c1cnc2c(c1)c1nc(-c3ccc(-c4nc5c6cccnc6c6ncccc6c5[nH]4)cc3)[nH]c1c1cccnc12

absorption maximum (in ClCCl): 445 nm
Structure (SMILES): [O-][n+]1c(-c2ccc(Br)cc2)cc(N2CCOCC2)nc1/C=C/c1ccccc1

absorption maximum (in ClCCl): 432 nm
Structure (SMILES): CN(C)c1ccc(/C=C/c2cnc(/C=C/c3ccc(C#N)cc3)o2)cc1

absorption maximum (in CCO): 387 nm
Structure (SMILES): Cc1c(COC(=O)c2ccc(I)cc2)n2c(OCC(=O)c3ccc(I)cc3)c(C)c(=O)n2c1=O

absorption maximum (in O): 454 nm
Structure (SMILES): CC[n+]1c(-c2ccccc2)c2cc(N)ccc2c2ccc(-n3cccc3)cc21

absorption maximum (in C1CCOC1): 424 nm
absorption maximum (in CC#N): 424 nm
absorption maximum (in CCCCCCC): 418 nm
absorption maximum (in CS(C)=O): 435 nm
absorption maximum (in ClCCl): 427 nm
Structure (SMILES): CN(C)c1ccc(/C=C/c2cnc3ccccc3n2)cc1

absorption maximum (in ClCCl): 428 nm
Structure (SMILES): CC(C)(C)c1ccc(N(c2ccccc2)c2ccc3ccc4c(N(c5ccccc5)c5ccc(C(C)(C)C)cc5)ccc5ccc2c3c54)cc1

absorption maximum (in ClC(Cl)Cl): 297 nm
Structure (SMILES): N#Cc1ccc(C#Cc2ccccc2C#N)cc1

absorption maximum (in ClCCl): 659 nm
Structure (SMILES): CC(C)[Si](C#Cc1ccc(C#Cc2c3cc4ccccc4cc3c(C#C[Si](C(C)C)(C(C)C)C(C)C)c3cc4ccccc4cc23)cc1)(C(C)C)C(C)C

absorption maximum (in C1CCOC1): 356 nm
absorption maximum (in CC#N): 352 nm
absorption maximum (in CN(C)C=O): 357 nm
absorption maximum (in ClC(Cl)Cl): 357 nm
absorption maximum (in c1ccccc1): 358 nm
Structure (SMILES): N#Cc1ccc(C#Cc2ccc(C#Cc3ccc(C#Cc4ccccc4C#N)cc3C#N)cc2C#N)cc1

absorption maximum (in C1CCOC1): 375 nm
Structure (SMILES): c1ccc(-n2c3c(c4c2-c2ccccc2C42c4ccccc4-c4ccccc42)C2(c4ccccc4-c4ccccc42)c2ccccc2-3)cc1

absorption maximum (in C1CCCCC1): 470 nm
Structure (SMILES): C[Si](C)(C)C#CC#Cc1ccc2c3cccc4cccc(c5cccc1c52)c43

absorption maximum (in C1CCCCC1): 598.5 nm
absorption maximum (in CCOC(C)=O): 601.5 nm
Structure (SMILES): CC1=[N+]2C(=C(c3ccc(Br)cc3)c3ccc(C)n3[B-]2(F)F)C=C1c1cc2n(c1)[B-](F)(F)[N+]1=CC=CC1=C2c1c(C)cc(C)cc1C

absorption maximum (in ClCCl): 409 nm
Structure (SMILES): CN(C)c1ccc(/C=C/c2nc(/C=C/c3ccc(N(c4ccccc4)c4ccccc4)cc3)cc(/C=C/c3ccc(N(c4ccccc4)c4ccccc4)cc3)n2)cc1

absorption maximum (in ClCCl): 479 nm
Structure (SMILES): COc1ccc2cc(/C=C/C3=C4CCc5ccccc5C4=[O+][B-](F)(F)O3)ccc2c1

absorption maximum (in ClCCl): 341 nm
Structure (SMILES): c1ccc(-n2nc(-c3ccc(N4c5ccccc5Oc5ccccc54)cc3)nc2-c2ccccn2)cc1

The remaining lines, values behind:

Structure (SMILES): Cc1cc(C)c(B2c3cc(C)ccc3N3c4ccc(C)cc4B(c4c(C)cc(C)cc4C)c4cc(C)cc2c43)c(C)c1
absorption maximum (in ClCCl): 457 nm

Structure (SMILES): Cc1ccc(/C=C/C(F)(F)F)c(N)c1
absorption maximum (in C1CCOC1): 346 nm

Structure (SMILES): COC(=O)C1=C(C(=O)OC)C2=C[C@H]3c4ccccc4[C@]2([Se]1)c1ccccc13
absorption maximum (in ClCCl): 370 nm

Structure (SMILES): CC(C)(C)c1cc2ccc3cccc4c3c2c(c1)c1nc2c3cc(C(C)(C)C)cc5ccc6cccc(c(=O)n2c41)c6c53
absorption maximum (in C1CCOC1): 395 nm
absorption maximum (in CC#N): 389 nm
absorption maximum (in CC(C)=O): 391 nm
absorption maximum (in CCCCCC): 393 nm
absorption maximum (in CCO): 390 nm
absorption maximum (in CCOC(C)=O): 390 nm
absorption maximum (in CO): 382 nm
absorption maximum (in CS(C)=O): 391 nm
absorption maximum (in Cc1ccc(C)cc1): 392 nm
absorption maximum (in ClC(Cl)(Cl)Cl): 395 nm
absorption maximum (in ClC(Cl)Cl): 395 nm
absorption maximum (in c1ccccc1): 395 nm

Structure (SMILES): Cc1ccc(C(=O)NN2C3=C(CC4=C2CCCC4=O)C(=O)CCC3)cc1
absorption maximum (in C1CCOC1): 366 nm
absorption maximum (in CC#N): 368 nm
absorption maximum (in CC(C)=O): 366 nm
absorption maximum (in CCCCCO): 376 nm
absorption maximum (in CO): 374 nm
absorption maximum (in ClC(Cl)Cl): 370 nm
absorption maximum (in ClCCl): 366 nm

Structure (SMILES): Oc1ccc2ccccc2c1C1Nc2cccc3cccc(c23)N1
absorption maximum (in CC#N): 334 nm
absorption maximum (in CO): 333 nm
absorption maximum (in CS(C)=O): 350 nm
absorption maximum (in Cc1ccccc1): 337 nm

Structure (SMILES): CC1(C)C(/C=C/C2=C(c3ccc(C(=O)O)cc3)C(=C/C=C3/N(CCCCS(=O)(=O)[O-])c4ccc(S(=O)(=O)[O-])cc4C3(C)C)/CCC2)=[N+](CCCCS(=O)(=O)[O-])c2ccc(S(=O)(=O)[O-])cc21
absorption maximum (in CO): 770 nm

Structure (SMILES): N#Cc1c(-n2c3ccc(Br)cc3c3cc(Br)ccc32)c(-n2c3ccc(Br)cc3c3cc(Br)ccc32)c(C#N)c(-n2c3ccc(Br)cc3c3cc(Br)ccc32)c1-n1c2ccc(Br)cc2c2cc(Br)ccc21
absorption maximum (in Cc1ccccc1): 339 nm

Structure (SMILES): c1ccc(-n2c(-c3ccc(-c4ccc(-c5ccc(-c6nc7c8ccccc8c8ccccc8c7n6-c6ccccc6)cc5)cc4)cc3)nc3ccccc32)cc1
absorption maximum (in C1CCOC1): 341 nm
absorption maximum (in C1COCCO1): 344 nm
absorption maximum (in CC#N): 337 nm
absorption maximum (in CCCCCC): 341 nm
absorption maximum (in CCCCOCCCC): 340 nm
absorption maximum (in CCN(CC)CC): 341 nm
absorption maximum (in CCOC(C)=O): 339 nm
absorption maximum (in CCOCC): 340 nm
absorption maximum (in CN(C)C=O): 342 nm
absorption maximum (in Cc1ccccc1): 345 nm
absorption maximum (in ClC(Cl)Cl): 340 nm
absorption maximum (in ClC=C(Cl)Cl): 343 nm
absorption maximum (in ClCCl): 340 nm

Structure (SMILES): N#CC1=C(c2ccc(-c3cccs3)s2)CCC1
absorption maximum (in C1CCOC1): 364 nm
absorption maximum (in CC#N): 362 nm
absorption maximum (in CCCCCC): 360 nm
absorption maximum (in CCO): 366 nm
absorption maximum (in OCCOCCO): 367 nm
absorption maximum (in c1ccncc1): 368 nm

Structure (SMILES): CC(C)(C)c1ccc2c(c1)c1cc(C(C)(C)C)ccc1n2-c1cccc2c1Oc1c(-c3nc(-c4ccccc4)nc(-c4ccccc4)n3)cccc1C2(C)C
absorption maximum (in Cc1ccccc1): 346 nm

Structure (SMILES): Nc1nc2ccc(F)cc2[n+]([O-])n1
absorption maximum (in CC#N): 415 nm
absorption maximum (in O): 422 nm

Structure (SMILES): Cc1cc(C)c(B(c2ccc(-c3nc4c5ccccc5c5ccccc5c4[nH]3)cc2)c2c(C)cc(C)cc2C)c(C)c1
absorption maximum (in C1CCOC1): 384 nm
absorption maximum (in CC(C)=O): 380 nm
absorption maximum (in CS(C)=O): 386 nm
absorption maximum (in Cc1ccccc1): 381 nm
absorption maximum (in ClCCl): 376 nm

Structure (SMILES): CCOC(=O)/C(C#N)=C/c1cc2c3ccccc3n(C)c2cc1OC
absorption maximum (in C1CCOC1): 407 nm
absorption maximum (in CC#N): 410 nm
absorption maximum (in CCOC(C)=O): 406 nm
absorption maximum (in CN(C)C=O): 417 nm
absorption maximum (in CO): 415 nm
absorption maximum (in CS(C)=O): 419 nm
absorption maximum (in Cc1ccccc1): 407 nm
absorption maximum (in ClC(Cl)Cl): 415 nm
absorption maximum (in ClCCl): 412 nm

Structure (SMILES): COc1ccc2oc(-c3cc4cc(OC)ccc4oc3=O)cc2c1
absorption maximum (in CC#N): 382 nm
absorption maximum (in CCOC(C)=O): 384 nm
absorption maximum (in CS(C)=O): 389 nm
absorption maximum (in Cc1ccccc1): 388 nm
absorption maximum (in O): 347 nm

Structure (SMILES): COc1ccc2c(c1)-c1nc(-c3ccccc3)c3ccccc3[n+]1[B-](F)(F)O2
absorption maximum (in Cc1ccccc1): 434 nm

Structure (SMILES): CCCCCCC(CCCCCC)N1C(=O)c2cccc3c(-c4cc(OC)c(OC)c(OC)c4)ccc(c23)C1=O
absorption maximum (in CCCCCC): 354.8 nm
absorption maximum (in CCCCCCCCCCCCCC): 357 nm
absorption maximum (in CCCCCCCCCCCO): 362.6 nm
absorption maximum (in CCCCO): 361.4 nm
absorption maximum (in CN(C)C=O): 365.6 nm
absorption maximum (in Cc1ccccc1): 360.8 nm
absorption maximum (in ClC(Cl)Cl): 362.2 nm

Structure (SMILES): CN(CC(O)c1cccc(O)c1)c1ccc([N+](=O)[O-])c(C2CC(c3cccc4ccccc34)=NN2c2ccccc2)c1 (centres undefined)
absorption maximum (in C1CCCCC1): 400 nm
absorption maximum (in C1CCOC1): 411 nm
absorption maximum (in C1COCCO1): 396 nm
absorption maximum (in CC#N): 402 nm
absorption maximum (in CC(C)O): 412 nm
absorption maximum (in CCOC(C)=O): 418 nm
absorption maximum (in CCOCC): 405 nm
absorption maximum (in CO): 409 nm
absorption maximum (in Cc1ccccc1): 414 nm
absorption maximum (in ClC(Cl)Cl): 369 nm
absorption maximum (in O): 406 nm

Structure (SMILES): COc1ccc2cc3c(C)cc(=O)oc3cc2c1
absorption maximum (in CC#N): 340 nm
absorption maximum (in CCCCCC): 337 nm
absorption maximum (in CCO): 343 nm
absorption maximum (in CCOC(C)=O): 340 nm
absorption maximum (in CO): 343 nm
absorption maximum (in OCC(F)(F)F): 344 nm

Structure (SMILES): CNc1ncc2nc(C#N)n(Cc3ccccc3)c2n1
absorption maximum (in C1COCCO1): 342 nm
absorption maximum (in CC#N): 342 nm
absorption maximum (in CO): 342 nm
absorption maximum (in ClCCl): 341 nm

Structure (SMILES): Nc1ccc2c(c1)NC(=O)CC(=O)N2
absorption maximum (in CS(C)=O): 318 nm

Structure (SMILES): Cc1cc2nc3c(=O)n(C)c(=O)n(C)c3nc2cc1C
absorption maximum (in CC#N): 375 nm

Structure (SMILES): CCCCC1(CCCC)c2cc(-c3ccc(C=C4C(=O)c5ccccc5C4=O)cc3)ccc2-c2ccc(-c3ccc(C=C4C(=O)c5ccccc5C4=O)cc3)cc21
absorption maximum (in C1CCOC1): 438 nm
absorption maximum (in CC(C)=O): 435 nm
absorption maximum (in CCCCCC): 418 nm
absorption maximum (in CS(C)=O): 445 nm
absorption maximum (in Cc1ccccc1): 437 nm
absorption maximum (in ClC(Cl)Cl): 445 nm
